Consider six compounds from PMC10682101, “In vitro pharmacological characterization of standard and new lysophosphatidic acid receptor antagonists using dynamic mass redistribution assay” (Frontiers in Pharmacology, 2023).

Entries after “also recorded” stand apart in the source; their conditions may differ. Like-named read-outs stand apart in the source and are kept apart here.

By pEC50 is commonly meant the negative decadic logarithm of the EC50, by convention in mol/L. As usually defined, the pIC50 is the IC50 on a negative log10 scale, so that one unit is a factor of ten. Usually EC50 stands for the midpoint of the concentration-response curve. Lower therefore signals higher potency in that assay. In general, pKB refers to the negative decadic logarithm of the KB, by convention in mol/L.

On the set-up of series [1]: method as in Allanore et al., 2018. Conditions: phase II, diffuse cutaneous systemic sclerosis; ref Allanore et al., 2018; cited from earlier work.
For series [2], the target named is T1, human LPA1 receptor (Homo sapiens, UniProt Q92633). Nature of the series: Calcium mobilization assay in CHOLPA1 cells. Conditions: for Effect per se: 1 µM, data not shown; for Shift of the concentration–response curve to LPA: antagonism protocol (compound 35, compound 20 at 1 µM). For orientation: A change in cytosolic calcium serves as a functional read-out for many receptors and channels.

In another series the target is LPA1 receptor. Conditions: 2017, cited from earlier work.
For series [3], the target named is T1, human LPA1 receptor. Nature of the series: Dynamic mass redistribution (DMR) assay in CHOLPA1 cells. Conditions: for Shift of the concentration–response curve to LPA: antagonism protocol; for Agonism Emax: negative DMR signal; for DMR response: CHOLPA1 cells; for EC50: Agonism pEC50, CHOLPA1, DMR.
Procedure: All data were analyzed using GraphPad Prism 9.4 (La Jolla, CA, United States). Concentration–response curves were fitted using the four-parameter log-logistic equation. Data are expressed in the form mean ± s.e.m. across n experiments performed in duplicate. Agonist potency is expressed in the form pEC50, which is the negative logarithm to base 10 of the agonist molar concentration that produces 50% of the maximal possible effect of that agonist. […] In practice, equiactive concentrations of the agonist in the absence ([A]) and presence ([A’]) of a non-competitive antagonist ([B]) were compared in a double reciprocal plot describing a straight line, and pKB was derived from the equation: pKB = log[(slope—1)/[B]]. […] Maximal effect data were analyzed using the Student’s t-test or a one-way ANOVA followed by Dunnett’s post-hoc test.
The test system of series [4] is CHO wild-type cells. Nature of the series: DMR assay in CHO wild-type cells (control). It counts as cell-based. To be noted: for DMR response: CHO cells. Here is the method:
Confluent cells were sub-cultured using trypsin/EDTA and used for experiments. Cells were seeded at a density of 20,000 cells/well in 30 µL into fibronectin-coated EnspireTM-LC 384-well plates and cultured for 20 h to form a confluent monolayer. On the day of the experiment, the cells were manually washed twice and maintained with assay buffer (HBSS with 20 mM HEPES, 0.01% BSA) for 90 min before DMR experiments. DMR was monitored in real time with a temporal resolution of 44 s throughout the assay. Experiments were performed at 37°C using an EnSight Multimode Plate Reader (PerkinElmer). The agonism protocol was as follows: before addition of the ligand, the DMR signal was measured for 5 min, and the average of the signals recorded during this period was set as the baseline (pm = 0). Compounds are added manually in a volume of 10 µL, and the triggered DMR signals were recorded for 60 min. The antagonism protocol was as follows: antagonists were added manually 25 min before reading the 5 min baseline. […] Responses were described in the form of picometer shift over time (seconds) following the subtraction of values from vehicle-treated wells. Maximum picometer (pm) modification (peak) and area under the curve (AUC) were used to determine the agonist response.

Series [5] has as its system CHO wild-type cells. Nature of the series: Calcium mobilization assay in CHO wild-type cells (control). Conditions: micromolar concentration. It counts as cell-based. As for the experimental part:
Cells were seeded at a density of 50,000 cells/well in 100 μL into black, clear-bottom 96-well plates. The following day, cells were incubated with medium supplemented with 2.5 mM probenecid, 3 μM of the calcium-sensitive fluorescent dye Fluo-4 AM, and 0.01% pluronic acid for 30 min at 37°C. After the incubation period, the loading solution was aspirated, and 100 μL of HBSS supplemented with 20 mM HEPES, 2.5 mM probenecid, and 500 μM Brilliant Black was added. Serial dilutions of compounds were carried out in HBSS/HEPES (20 mM) buffer containing 0.01% BSA. Cell culture and drug plates were placed into a fluorimetric imaging plate reader (FlexStation II, Molecular Devices, Sunnyvale, CA), and fluorescence changes were measured. Online additions were carried out with a volume of 50 μL/well. […] To facilitate drug diffusion into the wells, the experiments were performed at 37°C, and three cycles of mixing (25 μL from each well moved up and down three times) were performed immediately after injection of antagonists into the wells. Agonist effects were expressed in the form of maximum percentage change over baseline fluorescence. Baseline fluorescence was measured in wells treated with vehicle.

For a further series, the target named is LPA2 receptor. The arrangement: method as in Beck et al., 2008. Conditions: ref Beck et al., 2008, cited from earlier work.
Series [6] has as its target T2, human LPA2 receptor (Homo sapiens, UniProt Q9HBW0). Nature of the series: Dynamic mass redistribution (DMR) assay in CHOLPA2 cells. Conditions: for Shift of the concentration–response curve to LPA / DMR effect per se / Agonism Emax / Agonism pEC50: CHOLPA2, DMR; for Shift of the concentration–response curve to LPA: antagonism protocol, 1 µM; for DMR effect per se: concentration–response up to highest concentration tested; for Agonism Emax / Agonism pEC50: negative DMR signal, peak, up to 10 µM (compound 35 up to 1 µM), °inactive at 10 μM; for DMR response: CHOLPA2 cells.
Procedure: Confluent cells were sub-cultured using trypsin/EDTA and used for experiments. Cells were seeded at a density of 20,000 cells/well in 30 µL into fibronectin-coated EnspireTM-LC 384-well plates and cultured for 20 h to form a confluent monolayer. On the day of the experiment, the cells were manually washed twice and maintained with assay buffer (HBSS with 20 mM HEPES, 0.01% BSA) for 90 min before DMR experiments. DMR was monitored in real time with a temporal resolution of 44 s throughout the assay. Experiments were performed at 37°C using an EnSight Multimode Plate Reader (PerkinElmer). The agonism protocol was as follows: before addition of the ligand, the DMR signal was measured for 5 min, and the average of the signals recorded during this period was set as the baseline (pm = 0). Compounds are added manually in a volume of 10 µL, and the triggered DMR signals were recorded for 60 min. […] Responses were described in the form of picometer shift over time (seconds) following the subtraction of values from vehicle-treated wells. Maximum picometer (pm) modification (peak) and area under the curve (AUC) were used to determine the agonist response.
All data were analyzed using GraphPad Prism 9.4 (La Jolla, CA, United States). Concentration–response curves were fitted using the four-parameter log-logistic equation. Data are expressed in the form mean ± s.e.m. across n experiments performed in duplicate. […] In practice, equiactive concentrations of the agonist in the absence ([A]) and presence ([A’]) of a non-competitive antagonist ([B]) were compared in a double reciprocal plot describing a straight line, and pKB was derived from the equation: pKB = log[(slope—1)/[B]]. […] Maximal effect data were analyzed using the Student’s t-test or a one-way ANOVA followed by Dunnett’s post-hoc test.

The target in series [7] is T2, human LPA2 receptor. Nature of the series: Calcium mobilization assay in CHOLPA2 cells. Conditions: CHOLPA2, calcium mobilization; for Effect per se / Shift of the concentration–response curve to LPA: 1 µM; for Effect per se: data not shown; for Agonism Emax / Agonism pEC50: #inactive at 1 μM; for Shift of the concentration–response curve to LPA: antagonism protocol.

On the set-up of series [8]: method as in Palmer et al., 2018. To be noted: patients with idiopathic pulmonary fibrosis, ref Palmer et al., 2018, cited from earlier work.
In another series the test system is LPA1. The arrangement: method as in Cheng et al., 2021. Conditions: LPA1 antagonist, calcium mobilization; ref Cheng et al., 2021; cited from earlier work.
Setting [9] is: CHOLPA1, calcium mobilization, #inactive at 1 μM.
The mark [10] stands for this setting: CHOLPA1, DMR, peak, up to 10 µM (compound 35 up to 1 µM), °inactive at 10 μM.
Setting [11] is: CHOLPA1, calcium mobilization, *inactive at 0.1 µM.
Where [12] appears, read: negative DMR signal (inverse agonism), peak, up to 10 µM (compound 35 up to 1 µM), °inactive at 10 μM.

T2 sequence (Q9HBW0 whole entry): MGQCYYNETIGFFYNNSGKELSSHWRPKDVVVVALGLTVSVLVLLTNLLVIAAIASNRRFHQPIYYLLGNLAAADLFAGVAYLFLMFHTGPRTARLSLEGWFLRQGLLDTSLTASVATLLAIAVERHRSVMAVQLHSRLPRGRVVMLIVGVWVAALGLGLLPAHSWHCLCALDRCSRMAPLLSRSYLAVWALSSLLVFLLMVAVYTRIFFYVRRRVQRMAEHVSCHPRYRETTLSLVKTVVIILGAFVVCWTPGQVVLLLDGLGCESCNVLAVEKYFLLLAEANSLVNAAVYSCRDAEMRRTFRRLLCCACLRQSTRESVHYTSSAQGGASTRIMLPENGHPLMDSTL
T1 sequence (Q92633 whole entry): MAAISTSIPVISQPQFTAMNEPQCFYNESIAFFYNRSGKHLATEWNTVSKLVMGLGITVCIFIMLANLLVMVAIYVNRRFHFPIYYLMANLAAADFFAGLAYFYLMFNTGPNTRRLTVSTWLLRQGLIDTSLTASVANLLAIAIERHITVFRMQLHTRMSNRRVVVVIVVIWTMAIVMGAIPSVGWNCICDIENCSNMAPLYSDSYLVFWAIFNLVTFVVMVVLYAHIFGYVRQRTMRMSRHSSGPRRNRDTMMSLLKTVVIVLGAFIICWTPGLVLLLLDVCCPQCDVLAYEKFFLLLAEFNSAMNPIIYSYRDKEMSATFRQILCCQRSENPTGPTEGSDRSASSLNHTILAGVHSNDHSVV

Turning to `COc1ccc(C(=O)NC2(C(=O)O)Cc3ccccc3C2)cc1OCCc1cccc(C)c1` [SAR-100842], in [1], the “Improvement in the modified Rodnan skin thickness score” value is on record as “not statistically significant” and the Tolerability entry was “well-tolerated”.

As for `CCCCCCCC/C=C\CCCCCCCC(=O)OC[C@@H](O)COP(=O)([O-])O.[Na+]` [LPA, Oleoyl-L-α-lysophosphatidic acid sodium salt], the “pEC50 (stimulant effect of LPA)” value is listed as 7.25 (7.19–7.31) at human LPA1 receptor [2] (CHOLPA1, calcium mobilization, LPA 0.01 nM–10 µM) and 7.16 (6.89–7.43) on human LPA1 receptor [3] (CHOLPA1, DMR, peak, LPA 0.01 nM–10 µM). In addition, the pEC50 is given as about 7.5 at LPA1 receptor (native LPA1 receptor, ref Sattikar et al.); about 7.5 on LPA1 receptor (recombinant LPA1 receptor, ref Swaney et al., 2011, Shimizu and Nakayama). The “Effect in CHO wild-type cells” value with CHO wild-type cells [4] (DMR, micromolar concentration) is recorded as “elicited some stimulant effects”; in the series with CHO wild-type cells [5], “elicited some stimulant effects”.

Take `Cc1csc2c(N[C@@H](C)CN3CCN(S(=O)(=O)c4ccc(Cl)c(Cl)c4)CC3)ncnc12` [Compound 35]: at human LPA1 receptor [2] (Antagonism pKB/pA2, CHOLPA1, calcium mobilization, LPA curve in absence and presence of 1 µM compound), the Kb was over 1000 nM. Also, the Effect per se entry on human LPA1 receptor [2] (CHOLPA1, calcium mobilization) was “did not produce any effect per se”; at human LPA2 receptor [7], “did not produce any effect per se”. Further, the “Agonism Emax” value at human LPA1 receptor [2] (setting [9]) is “Inactive^#”; at human LPA2 receptor [6], “Crc incomplete”; at human LPA1 receptor [3] (setting [10]), “Crc incomplete”; at human LPA2 receptor [7], “Inactive^#”. Moreover, the “Agonism pEC50” value on human LPA1 receptor [2] (setting [9]) is recorded as “Inactive^#”; on human LPA2 receptor [6] it was “Crc incomplete”; on human LPA1 receptor [3] (CHOLPA1, DMR, negative DMR signal (inverse agonism), peak, up to 10 µM (compound 35 up to 1 µM), °inactive at 10 μM), “Crc incomplete”; at human LPA2 receptor [7] it was “Inactive^#”. Further, the “Shift of the concentration–response curve to LPA” value (“Shift” below) at human LPA1 receptor [2] (CHOLPA1, calcium mobilization) is recorded as “did not shift the concentration–response curve to LPA to the right”; on human LPA2 receptor [6], “shifted the concentration–response curve to LPA to the right”; at human LPA1 receptor [3] (CHOLPA1, DMR, 1 µM), “did not shift the concentration–response curve to LPA to the right”; on human LPA2 receptor [7] it was “shifted the concentration–response curve to LPA to the right”. Further, on LPA2 receptor (inhibition of stimulant activity of LPA on Ca2+ mobilization, LPA2-transfected cells), the negative logarithm of the IC50 (pIC50) is given as 7.77. Besides, in the series on LPA2 receptor, the “Selectivity for LPA2 vs. LPA1 and LPA3 receptors” value is “highly selective”. Also, the “DMR effect per se” value is “inactive per se, or slightly active only at the higher concentration tested” at human LPA2 receptor [6] and “only a slight negative signal at the highest concentration tested” on human LPA1 receptor [3] (CHOLPA1, DMR, up to highest concentration tested (10 μM; compound 35 1 µM)). Besides, the DMR response at human LPA2 receptor [6] (compound 35 1 μM) is given as −88 ± 6 pm; at human LPA1 receptor [3] (compound 35 1 μM), −101 ± 10 pm; in the series on CHO wild-type cells [4] (compound 35 1 μM), −27 ± 13 pm.

On to `Cc1noc(-c2ccc(-c3ccc(C4(C(=O)O)CC4)cc3)cc2)c1NC(=O)O[C@H](C)c1ccccc1` [BMS-986020], for which the Effect per se result is recorded as “did not produce any effect per se” at human LPA1 receptor [2] (CHOLPA1, calcium mobilization) and “did not produce any effect per se” on human LPA2 receptor [7]. The “Agonism Emax” value on human LPA1 receptor [2] (setting [11]) is recorded as “Inactive*”; at human LPA2 receptor [6] it was “Crc incomplete”; on human LPA2 receptor [7] it was “Inactive^#”. Further, the “Agonism pEC50” value at human LPA1 receptor [2] (setting [11]) was “Inactive*”; at human LPA2 receptor [6], “Crc incomplete”; on human LPA2 receptor [7], “Inactive^#”. Further, the “Shift” value is listed as “shifted the concentration–response curve to LPA to the right” on human LPA1 receptor [2] (CHOLPA1, calcium mobilization); “shifted the concentration–response curve to LPA to the right” on human LPA1 receptor [3] (CHOLPA1, DMR, 1 µM); “shifted the concentration–response curve to LPA to the right” on human LPA2 receptor [7]. Also, the “Effect on LPA maximal effect” value at human LPA1 receptor [2] (CHOLPA1, calcium mobilization, tested as antagonist) is reported as “produced a reduction in LPA maximal effect”; on human LPA1 receptor [3] (CHOLPA1, DMR, tested as antagonist, 1 µM), “produced a reduction in LPA maximal effect; also recorded: slight but statistically significant reduction in LPA maximal effect”. Further, at human LPA2 receptor [6], the “DMR effect per se” value was “inactive per se, or slightly active only at the higher concentration tested”. Moreover, the DMR response at human LPA2 receptor [6] (compound 10 μM, mean ± s.e.m.) was −79 ± 18 pm; on human LPA1 receptor [3] (compound 10 μM, mean ± s.e.m.), −134 ± 28 pm; in the series with CHO wild-type cells [4] (compound 10 μM, mean ± s.e.m.), −39 ± 17 pm. This compound also had a Kb on human LPA1 receptor [3] of 79.4 nM. This compound showed a concentration for a half-maximal effect (EC50) on human LPA1 receptor [3] (setting [12]) of 87.1 nM. For the same compound, in [8] (compared with placebo), the “Rate of decline in forced vital capacity” value is “slower rate of decline in forced vital capacity”. The Cholecystitis result in series [8] (study interrupted) is “three cases of cholecystitis”. In addition, the Hepatic enzymes result in [8] (study interrupted) is listed as “elevation in hepatic enzymes”. In the series on LPA1, the negative logarithm of the KB (pKB) is listed as about 8.

As to `Cc1noc(-c2ccc(O[C@H]3CC[C@@H](C(=O)O)CC3)cc2)c1NC(=O)O[C@H](C)c1ccccc1Cl` [Compound CHI], the Effect per se result on human LPA1 receptor [2] (CHOLPA1, calcium mobilization) is “inactive”; on human LPA2 receptor [7], “inactive”. Besides, on human LPA1 receptor [2] (pKB, CHOLPA1, calcium mobilization, Gaddum method, 1 µM antagonist), the Kb was 57.5 nM. Moreover, the “Shift” value on human LPA2 receptor [6] is on record as “did not shift the concentration–response curve to LPA”; on human LPA1 receptor [3] (CHOLPA1, DMR, 1 µM), “active as an LPA1 antagonist only in calcium mobilization experiments”; at human LPA2 receptor [7], “did not shift the concentration–response curve to LPA”. The “DMR effect per se” value at human LPA2 receptor [6] was “inactive”; in the series on CHO wild-type cells [4] (CHO wild-type cells, 10 µM), “inactive”. Besides, the DMR response at human LPA2 receptor [6] (compound 10 μM, mean ± s.e.m.) was −55 ± 19 pm; on human LPA1 receptor [3] (compound 10 μM, mean ± s.e.m.), −78 ± 18 pm; in the series on CHO wild-type cells [4] (compound 10 μM, mean ± s.e.m.) it was −4 ± 22 pm. On human LPA1 receptor [3] (setting [12]), this compound showed an EC50 of 309 nM. In addition, the “Agonism Emax” value at human LPA1 receptor [3] (setting [10]) was −68 ± 13 pm.

In the case of `Nc1ncnc2c1ncn2[C@@H]1O[C@H](COP(=O)(O)OP(=O)(O)OP(=O)(O)O)[C@@H](O)[C@H]1O` [ATP], the DMR response amounted to 96 ± 13 pm on human LPA2 receptor [6] (ATP 100 μM), 84 ± 6 pm on human LPA1 receptor [3] (ATP 100 μM) and 156 ± 11 pm with CHO wild-type cells [4] (ATP 100 μM).
